Usually AUC stands for concentration integrated over time. A word on the MRT: it is a mean duration of stay, worked out from the concentration-time curve. Broadly, the EC50 is the concentration at which the effect is half-maximal. Read a low EC50 as an effect from little substance. A word on the Emax: it is the greatest response seen or fitted, relative to the assay's reference. The CC50 is the concentration at which the toxic effect on the cells reaches its halfway point.

The source of these data is patent US11247998B2, “Piperazine heteroaryl derivative, preparation method therefor and use of same in medicine” (priority 2017, dated 2022).

Each structure is given as a SMILES string. Where only a bound is given, the exact number is not on record here.

Series [1] in a line: Pharmacokinetics assay in rats after intragastrical administration (LC/MS/MS of plasma). It is filed as in vivo. As to conditions: both sexes, rat, plasma, po, SD rats, 2 mg/kg. The method, then:
Pharmacokinetics assay of the compound of the present invention
Rats were used as test animals. The drug concentration in plasma at different time points was determined by LC/MS/MS method after intragastrical administration of the compound of Example 1, the compound of Example 2, the compound of Example 4, the compound of Example 6, the compound of Example 7, the compound of Example 11, the compound of Example 39, the compound of Example 42, the compound of Example 44, the compound of Example 45 and the compound of Example 47 to rats. The pharmacokinetic behavior and property of the compound of the present invention were studied and evaluated in rats.
44 Healthy adult SD rats (half male and half female, 4 rats/group) were purchased from Shanghai Jiesijie Laboratory Animal Co., LTD, with Certificate No.: SCXK (Shanghai) 2013-0006.
A certain amount of the test compound was weighed, and added with 5% by volume of DMSO, 5% by volume of tween 80 and 90% by volume of normal saline to prepare a 0.2 mg/mL colorless, clear and transparent solution.
After an overnight fast, SD rats were administrated intragastrically with the test compound at an administration dose of 2.0 mg/kg and an administration volume of 10.0 mL/kg.
The rats were intragastrically administrated the compound of Example 1, the compound of Example 2, the compound of Example 4, the compound of Example 6, the compound of Example 7, the compound of Example 11, the compound of Example 39, the compound of Example 42, the compound of Example 44, the compound of Example 45 and the compound of Example 47. 0.1 ml of blood was taken from the orbit before administration and at 0.5, 1.0, 2.0, 4.0, 6.0, 8.0, 11.0 and 24.0 hours after administration. The samples were stored in heparinized tubes, and centrifuged for 10 minutes at 3500 rpm to separate the blood plasma. The plasma samples were stored at −20° C. The rats were fed two hours after administration.
The content of the test compound in the plasma of rats after intragastrical administration of the test compound at different concentrations was determined: 25 μL of rat plasma at each time after administration was taken, added with 40 μL of the internal standard solution of camptothecin (100 ng/mL) and 200 μL of acetonitrile, vortex-mixed for 5 minutes, and centrifuged for 10 minutes (4000 rpm). 0.2 μL of the supernatant was taken from the plasma samples for LC/MS/MS analysis.

The subject of series [2] is HBV DNA replication in HepG2.2.15 cells. As to the kind of experiment: In vitro anti-HBV activity test (quantitative assay of intracellular HBV DNA), HepG2.2.15 cells, quantitative PCR. In kind it is cell-based, hepatitis B virus (HBV). As to conditions: Hepatitis B virus, HBV DNA by quantitative PCR; for EC50: compound treatment Day 2 to Day 8; for Emax: read-out: Emax (effect value of the compound to maximally inhibit HBV DNA replication). The method, then: In vitro anti-HBV activity test of the compound of the present invention (quantitative assay of intracellular HBV DNA)
HepG2.2.15 cell is a stable expression cell line that has integrated HBV genome.
Virus particles containing HBV DNA can be synthesized by replication, transcription and encapsidation in the cells, and then secreted. In this study, the quantitative analysis of HBV DNA produced by HepG2.2.15 in vitro proliferation was carried out by quantitative PCR method, thereby determining the activity of the compound of the present invention on inhibiting the HBV DNA replication by inhibiting the assembly of HBV capsid protein.
HepG2.2.15 cells were cultured in DMEM/high glucose medium (10% FBS, […] G418) and passaged every three days. On the day of the experiment, a cell suspension was prepared with fresh cell culture medium, and incubated in a 96-well plate (Corning, #3599) at 40,000 cells/well, at 5% carbon dioxide, 37° C. On Day 2, the compound was dissolved in pure DMSO at a concentration of 20 mM, and then the first concentration of 2 mM was formulated with DMSO, and diluted in 4-fold concentration gradient to 8 concentrations. A control well was added with 90 μl of DMSO. The compound solution was diluted 200-fold with DMEM/high glucose medium. The cell culture plate inoculated on Day 1 was taken out. The medium in the wells was removed by a negative pressure suction device, and the formulated medium containing the compound at each concentration was added respectively to each well at 200 μl/well. The plate was incubated at 37° C. for 72 hours. On Day 5, the medium of the cultured cells was replaced with fresh medium containing the same compound in the same way as Day 2, and then the plate was incubated at 37° C. for 72 hours. On Day 8, the cell culture plate was taken out, centrifuged at 300 g for 3 minutes, and the culture supernatant was collected at 200 μl/well. HBV DNA was extracted from the cell culture supernatant with Qiagen automatic DNA extraction device, and the specific method referred to the instructions of the reagents and instruments. Finally, the extracted DNA was eluted with DNA elution buffer at 100 μl/well. The extracted DNA was subjected to quantitative PCR analysis of HBV DNA using Hepatitis B virus nucleic acid quantitative detection kit (Triplex International Biosciences Co., Ltd.), and the specific method referred to the instruction of the kit. The quantitative standard curve was obtained with the standard sample provided in the kit, and the experiments were performed in parallel. Quantitative conversion of each sample was carried out according to the standard curve. Finally, the EC50 value of the compound was calculated with Graphpad Prism software according to each concentration of the compound and the corresponding DNA value.
The in vitro activity of the compound of the present invention on inhibiting the HBV DNA replication by inhibiting the assembly of HBV capsid protein was determined by the above experiment.

A short description of series [3]: Effect on in vitro proliferation of HepG2 cells (CellTiter-Glo). It is filed as cell-based. The conditions noted are these: human; HepG2 cells, 72 hours, CellTiter-Glo. The protocol: Test Example 2. Effect of the Compound of the Present Invention on In Vitro Proliferation of HepG2 Cells
HepG2 cells in logarithmic growth phase were taken and digested with trypsin to prepare a cell suspension, which was incubated in a 96-well plate (transparent bottom white 96-well plate, PerkinElmer) at 6,000 cells/well, at 5% carbon dioxide, 37° C. for 16-20 hours. On Day 2, the compound was dissolved in pure DMSO at a concentration of 20 mM. The compound was diluted in 3-fold concentration gradient using an automatic pipetting station (Bravo), 8 concentration points for each compound, and the control well was DMSO. The compound formulated in DMSO at each concentration point was diluted 200-fold with EMEM (containing 10% FBS) medium. The cell culture plate inoculated on Day 1 was taken out. The medium in the wells was removed by a negative pressure suction device, and the formulated medium containing the compound at each concentration was added respectively to each well at 100 μl/well. The plate was incubated at 37° C. for 72 hours. On Day 5, the 96-well cell culture plate was taken out, and freshly formulated CellTiter Glo was added to each well at 100 μl/well. The 96-well plate was left to stand for 5-10 minutes, the bottom was then sealed with a white bottom sealing film (PerkinElmer). The plate was placed in the microplate reader to measure the luminescence signal. The CC50 value of the compound was calculated with Graphpad Prism software according to each concentration of the compound and the corresponding proliferation inhibition signal value.
The inhibition effect of the compound of the present invention on in vitro proliferation of HepG2 cells was determined by the above experiment.
(Cellular ATP, detected with luciferase, serves as a proxy for viable cell number.)

`C[C@@H](NC(=O)c1ncn2c1CN(C(=O)Nc1cc(F)c(F)c(F)c1)CC2)C(F)(F)F` [Example 1, (R)—N^7-(3,4,5-Trifluorophenyl)-N^1-(1,1,1-trifluoropropan-2-yl)-5,6-dihydroimidazo[1,5-α]pyrazine-1,7(8H)-dicarboxamide]: in series [1] (read-out: Apparent distribution volume Vz/F), the Vd/F was 2.36 ± 0.245 L/kg. In addition, the AUC in series [1] (read-out: Area under curve AUC) stood at 14400 ± 3010 ng·h/mL. In addition, in series [1] (read-out: Bioavailability (%) F %), the bioavailability came to 119%. The CL/F in series [1] (read-out: Clearance CLz/F) was found to be 2.39 ± 0.5 mL/min/kg. Moreover, in series [1] (read-out: Half-life T1/2 (converted)), the half-life was 11.7 ± 2.3 h. In addition, in series [1] (read-out: Plasma concentration Cmax), the Cmax is 640 ± 102 ng/mL. Besides, the MRT in series [1] (read-out: Residence time MRT) stood at 17.4 ± 3 h.
As for `C[C@H]1Cn2ncc(C(=O)NC(C)(C)C)c2CN1C(=O)Nc1ccc(F)c(F)c1` [Example 8, (S)—N^3-(Tert-butyl)-N^5-(3,4-difluorophenyl)-6-methyl-6,7-dihydropyrazolo[1,5-α]pyrazine-3,5(4H)-dicarboxamide], in series [2], the EC50 came to 15 nM and the Emax turned out to be 100%. This molecule also yielded a CC50 at 72 h in series [3] above 100000 nM.
Consider `C[C@@H](NC(=O)c1cnn2c1CN(C(=O)Nc1ccc(F)c(C#N)c1)CC2)C(F)(F)F` [Example 9, (R)—N^5-(3-Cyano-4-fluorophenyl)-N^3-(1,1,1-trifluoropropan-2-yl)-6,7-dihydropyrazolo[1,5-α]pyrazine-3,5(4H)-dicarboxamide], for which, in series [2], the EC50 was 28 nM and the Emax amounted to 100%. Besides, in series [3], the CC50 at 72 h is above 100000 nM.
In the case of `C[C@H]1Cn2ncc(C(=O)NC(C)(C)C)c2CN1C(=O)Nc1cc(F)c(F)c(F)c1` [Example 10, (S)—N^3-(Tert-butyl)-6-methyl-N^5-(3,4,5-trifluorophenyl)-6,7-dihydropyrazolo[1,5-α]pyrazine-3,5(4H)-dicarboxamide], in series [2], it took 29 nM to reach a half-maximal effect (EC50) and the Emax worked out at 100%. Also, the cytotoxic concentration (CC50) at 72 h in series [3] is above 100000 nM.
For `C[C@H]1Cn2cnc(C(=O)NC(C)(C)C)c2CN1C(=O)Nc1ccc(F)c(F)c1` [Example 12, (S)—N^1-(Tert-butyl)-N^7-(3,4-difluorophenyl)-6-methyl-5,6-dihydroimidazo[1,5-α]pyrazine-1,7-(8H)-dicarboxamide], in series [2], the EC50 was 32 nM and the Emax stood at 100%. Also, the CC50 at 72 h in series [3] was above 100000 nM.
On the same counts, the results for `C[C@H]1Cn2cnc(C(=O)NC3(C)COC3)c2CN1C(=O)Nc1cc(F)c(F)c(F)c1` [Example 13, (S)-6-Methyl-N^1-(3-methyloxetan-3-yl)-N^7-(3,4,5-trifluorophenyl)-5,6-dihydroimidazo[1,5-α]pyrazine-1,7(8H)-dicarboxamide] are 35 nM, 100% and above 100000 nM.
For `C[C@H]1Cn2ncc(C(=O)NC3(C)COC3)c2CN1C(=O)Nc1cc(F)c(F)c(F)c1` [Example 14, (S)-6-Methyl-N^3-(3-methyloxetan-3-yl)-N^5-(3,4,5-trifluorophenyl)-6,7-dihydropyrazolo[1,5-a]pyrazine-3,5(4H)-dicarboxamide], in that order: 44 nM, 100% and above 100000 nM.
Regarding `C[C@H]1Cn2ncc(C(=O)N[C@H](C)C(F)(F)F)c2CN1C(=O)Nc1ccc(F)c(C#N)c1` [Example 15, (S)—N^5-(3-Cyano-4-fluorophenyl)-6-methyl-N^3-((R)-1,1,1-trifluoropropan-2-yl)-6,7-dihydropyrazolo[1,5-α]pyrazine-3,5(4H)-dicarboxamide], in series [2], the EC50 came out at 29 nM and the Emax was 100%. Further, the CC50 at 72 h in series [3] is above 100000 nM.
In the case of `C[C@H]1Cn2ncc(C(=O)N[C@H](C)C(F)(F)F)c2CN1C(=O)Nc1cc(F)nc(F)c1` [Example 16, (S)—N^5-(2,6-Difluoropyridin-4-yl)-6-methyl-N^3-((R)-1,1,1-trifluoropropan-2-yl)-6,7-dihydropyrazolo[1,5-α]pyrazine-3,5(4H)-dicarboxamide], in series [2], the midpoint of the response, the EC50, lay at 50 nM and the Emax came out at 100%. For the same molecule, the CC50 at 72 h in series [3] is above 100000 nM.
For `C[C@@H](NC(=O)c1nnn2c1CN(C(=O)Nc1cc(F)c(F)c(F)c1)CC2)C(F)(F)F` [Example 17, (R)—N^5-(3,4,5-Trifluorophenyl)-N^3-(1,1,1-trifluoropropan-2-yl)-6,7-dihydro-[1,2,3]triazolo[1,5-α]pyrazine-3,5(4H)-dicarboxamide], in that order: 70 nM, 80% and above 100000 nM.
As to `C[C@H]1Cn2cnc(C(=O)N3CCCC3)c2CN1C(=O)Nc1ccc(F)c(F)c1` [Example 59, (S)—N-(3,4-Difluorophenyl)-6-methyl-1-(pyrrolidine-1-carbonyl)-5,6-dihydroimidazo[1,5-α]pyrazine-7(8H)-carboxamide, reference compound], in series [2], a half-maximal response (EC50) required 5270 nM and the Emax was determined as 90%.
